This passage reports IC50 results from US11685732B2, “MYST family histone acetyltransferase inhibitors” (Epizyme, Inc., priority 2017, dated 2023).

For one test, the target named is KAT-5 (Homo sapiens (Human), UniProt Q92993). The experiment in a line: KAT-5 biochemical inhibition assay (SAMDI mass spectrometry). An outline of the steps:
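Acetylation of 1 μM peptide by 9 nM enzyme with 0.5 μM acetyl-CoA (final) was run 90 min at 25° C in Tris pH 8.0 buffer with DTT, after compound preincubation at 2% DMSO. Formic acid stopped the reaction, and product was quantified by SAMDI mass spectrometry to derive IC50.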

The target in the next test is KAT-7 (Homo sapiens (Human), UniProt O95251). The experiment in a line: KAT-7 biochemical inhibition assay (SAMDI mass spectrometry). An outline of the steps:
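Read-out was SAMDI time-of-flight MS of formic acid-quenched reactions (0.5% final). Compound dilutions (2% DMSO final) were pre-incubated with 6 nM KAT-7 in 50 mM Tris pH 8.0 with 1 mM DTT, then given 1 μM peptide substrate and 2 μM acetyl-CoA for 120 min at 25 °C. IC50 values were derived.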

Another test has as its target KAT-6A (Homo sapiens (Human), UniProt Q92794). Put plainly: KAT-6A biochemical inhibition assay (SAMDI mass spectrometry). An outline of the steps:
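IC50 values came from SAMDI time-of-flight mass spectrometry after formic acid quench (0.5% final). Acetylation ran 90 min at 25 °C with 1 μM acetyl coenzyme A and 1 μM peptide substrate, following compound pre-incubation with 12.5 nM KAT-6A in Tris buffer pH 8.0 containing DTT, 2% DMSO final.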

The next test deals with KAT-8 (Homo sapiens (Human), UniProt Q9H7Z6). Put plainly: KAT-8 biochemical inhibition assay (SAMDI mass spectrometry). An outline of the steps:
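Acetylation of 1 μM peptide substrate with 5 μM acetyl-CoA by 12.5 nM enzyme, compound pre-incubated, 2% DMSO, Tris pH 8.0 buffer with DTT, 25 °C for 90 min. Quench with 0.5% formic acid; product read by SAMDI mass spectrometry to give IC50.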

Usually IC50 stands for the concentration that inhibits the measured activity by half.

The structures appear in SMILES notation.

Chain of KAT-8 (Q9H7Z6 other isoform, or with tags, fused parts or gaps): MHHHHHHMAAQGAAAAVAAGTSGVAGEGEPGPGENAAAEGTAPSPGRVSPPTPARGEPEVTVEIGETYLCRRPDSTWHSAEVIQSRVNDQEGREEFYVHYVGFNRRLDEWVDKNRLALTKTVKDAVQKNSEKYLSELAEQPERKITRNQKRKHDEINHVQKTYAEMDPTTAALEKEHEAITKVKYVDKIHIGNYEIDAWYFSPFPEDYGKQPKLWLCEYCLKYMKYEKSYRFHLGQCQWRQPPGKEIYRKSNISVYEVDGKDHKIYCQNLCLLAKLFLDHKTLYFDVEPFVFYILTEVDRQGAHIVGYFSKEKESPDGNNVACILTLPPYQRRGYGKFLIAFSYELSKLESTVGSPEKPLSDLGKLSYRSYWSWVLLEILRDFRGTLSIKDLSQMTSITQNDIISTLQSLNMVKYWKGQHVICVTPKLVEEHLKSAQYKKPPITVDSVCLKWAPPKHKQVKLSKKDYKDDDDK
Chain of KAT-6A (Q92794 other isoform, or with tags, fused parts or gaps): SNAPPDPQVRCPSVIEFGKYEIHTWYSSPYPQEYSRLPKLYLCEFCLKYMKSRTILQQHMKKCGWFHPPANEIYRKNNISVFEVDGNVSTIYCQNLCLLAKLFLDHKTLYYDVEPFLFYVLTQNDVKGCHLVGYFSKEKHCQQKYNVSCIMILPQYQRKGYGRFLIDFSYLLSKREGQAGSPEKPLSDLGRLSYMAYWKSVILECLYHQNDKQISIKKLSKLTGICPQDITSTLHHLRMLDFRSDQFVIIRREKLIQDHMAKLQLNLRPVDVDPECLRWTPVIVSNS
Chain of KAT-5 (Q92993 other isoform, or with tags, fused parts or gaps): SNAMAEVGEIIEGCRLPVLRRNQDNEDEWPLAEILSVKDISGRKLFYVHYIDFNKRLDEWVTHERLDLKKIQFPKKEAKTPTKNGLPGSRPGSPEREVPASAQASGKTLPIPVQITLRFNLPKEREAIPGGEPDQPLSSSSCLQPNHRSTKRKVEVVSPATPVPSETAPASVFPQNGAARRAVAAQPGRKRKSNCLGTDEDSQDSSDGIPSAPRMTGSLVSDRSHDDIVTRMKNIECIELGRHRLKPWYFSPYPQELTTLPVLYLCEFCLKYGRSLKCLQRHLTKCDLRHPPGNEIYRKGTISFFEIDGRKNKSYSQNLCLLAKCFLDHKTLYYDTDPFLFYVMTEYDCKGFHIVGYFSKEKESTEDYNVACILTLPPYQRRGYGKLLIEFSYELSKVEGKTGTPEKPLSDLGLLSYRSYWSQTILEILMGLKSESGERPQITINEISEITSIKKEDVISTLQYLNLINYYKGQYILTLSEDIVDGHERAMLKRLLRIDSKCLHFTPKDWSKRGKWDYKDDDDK
Chain of KAT-7 (O95251 other isoform, or with tags, fused parts or gaps): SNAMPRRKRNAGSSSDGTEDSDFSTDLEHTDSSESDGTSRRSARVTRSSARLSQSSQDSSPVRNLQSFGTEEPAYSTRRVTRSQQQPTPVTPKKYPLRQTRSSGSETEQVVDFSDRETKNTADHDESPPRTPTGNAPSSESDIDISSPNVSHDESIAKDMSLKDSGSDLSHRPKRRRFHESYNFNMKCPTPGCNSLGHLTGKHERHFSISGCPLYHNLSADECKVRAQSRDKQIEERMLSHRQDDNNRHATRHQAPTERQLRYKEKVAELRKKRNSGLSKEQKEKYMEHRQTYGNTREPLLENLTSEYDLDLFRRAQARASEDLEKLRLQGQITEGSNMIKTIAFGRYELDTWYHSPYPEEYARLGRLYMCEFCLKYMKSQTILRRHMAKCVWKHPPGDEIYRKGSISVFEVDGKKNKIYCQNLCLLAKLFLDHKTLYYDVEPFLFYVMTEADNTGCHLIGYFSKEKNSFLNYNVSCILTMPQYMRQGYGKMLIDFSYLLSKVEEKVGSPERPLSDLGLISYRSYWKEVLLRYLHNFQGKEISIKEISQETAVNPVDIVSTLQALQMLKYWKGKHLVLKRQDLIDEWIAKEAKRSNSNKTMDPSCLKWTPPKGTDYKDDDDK

As to `CCC(=O)N[C@H]1CC[C@H](CS(=O)(=O)NNC(=O)c2cc(-c3cn(C)cn3)cc(Cl)c2F)CC1` [Compound I-195], the IC50 against KAT-5 is less than 10 µM; on KAT-7, less than 10 µM; at KAT-6A, less than 10 µM; against KAT-8 it was 10 to 50 µM.
Consider `Cn1cnc(-c2cc(Cl)c(F)c(C(=O)NNS(=O)(=O)C[C@H]3CC[C@H](NC(=O)C4CCC4)CC3)c2)c1` [Compound I-196], for which the IC50 at KAT-5 is less than 10 µM; on KAT-7 it was less than 10 µM; on KAT-6A it was less than 10 µM; against KAT-8, 10 to 50 µM.
Regarding `CC(C)NC(=O)N1CCC(CS(=O)(=O)NNC(=O)c2cc(-c3cn(C)cn3)cc(Cl)c2F)C1` (centres unmarked) [Compound I-198], the IC50 at KAT-5 is less than 10 µM; against KAT-7, less than 10 µM; on KAT-6A, less than 10 µM; on KAT-8, 10 to 50 µM.
Regarding `CCC(=O)NC1CCCC(CS(=O)(=O)NNC(=O)c2cc(-c3cn(C)cn3)cc(Cl)c2F)C1` (centres unmarked) [Compound I-199], the IC50 against KAT-5 is less than 10 µM; at KAT-7, less than 10 µM; at KAT-6A, less than 10 µM; on KAT-8, 10 to 50 µM.
For the molecule `Cn1cnc(-c2cc(Cl)c(F)c(C(=O)NNS(=O)(=O)C[C@H]3CC[C@@H](NC(N)=O)CC3)c2)c1` [Compound I-200], the concentration for half-maximal inhibition (IC50) at KAT-5, against KAT-7, against KAT-6A and against KAT-8 was less than 10 µM in each case.
With `CC(C)C(=O)N[C@H]1CC[C@H](CS(=O)(=O)NNC(=O)c2cc(-c3cn(C)cn3)cc(Cl)c2F)CC1` [Compound I-201], the IC50 is less than 10 µM against KAT-5, less than 10 µM at KAT-7, less than 10 µM on KAT-6A and 10 to 50 µM at KAT-8.
Regarding `COc1ccc(CN(C)C(=O)N2CC(CS(=O)(=O)NNC(=O)c3cc(-c4cn(C)cn4)cc(Cl)c3F)C2)cc1` [Compound I-202], the IC50 against KAT-5 was less than 10 µM; on KAT-7, less than 10 µM; on KAT-6A, less than 10 µM; against KAT-8 it was 10 to 50 µM.
On to `COc1ccc(CNC(=O)N2CC(CS(=O)(=O)NNC(=O)c3cc(-c4cn(C)cn4)cc(Cl)c3F)C2)cc1` [Compound I-203], for which the IC50 on KAT-5 is less than 10 µM; against KAT-7 it was less than 10 µM; on KAT-6A it was less than 10 µM; against KAT-8 it was 10 to 50 µM.
On to `CC(C)NC(=O)N1CC(CS(=O)(=O)NNC(=O)c2cc(-c3cn(C)cn3)cc(Cl)c2F)C1` [Compound I-204], for which the IC50 is 10 to 50 µM against KAT-5, less than 10 µM against KAT-7, 10 to 50 µM against KAT-6A and 10 to 50 µM at KAT-8.
`Cn1cnc(-c2cc(Cl)c(F)c(C(=O)NNS(=O)(=O)CC3CCN(C(N)=O)C3)c2)c1` (centres unmarked) [Compound I-205]: the IC50 against KAT-5 was less than 10 µM; against KAT-7, less than 10 µM; on KAT-6A, less than 10 µM; on KAT-8, 10 to 50 µM.
With `CC(C)C(=O)NC1CCCC(CS(=O)(=O)NNC(=O)c2cc(-c3cn(C)cn3)cc(Cl)c2F)C1` (centres unmarked) [Compound I-206], the IC50 against KAT-5 is less than 10 µM; on KAT-7 it was less than 10 µM; against KAT-6A, less than 10 µM; on KAT-8 it was 10 to 50 µM.
On to `Cn1cnc(-c2cc(Cl)c(F)c(C(=O)NNS(=O)(=O)C[C@H]3C[C@H](NC(N)=O)C3)c2)c1` [Compound I-207], for which the IC50 against KAT-5 was 10 to 50 µM; at KAT-7, less than 10 µM; against KAT-6A it was less than 10 µM; at KAT-8 it was 10 to 50 µM.
With `Cn1cnc(-c2cc(Cl)c(F)c(C(=O)NNS(=O)(=O)CC3CN(C(N)=O)C3)c2)c1` [Compound I-208], the IC50 against KAT-5 was 10 to 50 µM; at KAT-7, less than 10 µM; against KAT-6A, 10 to 50 µM; at KAT-8 it was 10 to 50 µM.
For the molecule `CNC(=O)N1CC[C@@H](CS(=O)(=O)NNC(=O)c2cc(-c3cn(C)cn3)cc(Cl)c2F)C1` [Compound I-209], the concentration for half-maximal inhibition (IC50) is less than 10 µM against KAT-5, less than 10 µM on KAT-7, 10 to 50 µM at KAT-6A and 10 to 50 µM on KAT-8.
